Laboratory results taken from ChEMBL document CHEMBL3352340, “7-Amino-2-phenylpyrazolo[4,3-d]pyrimidine derivatives: structural investigations at the 5-position to target human A₁ and A(2A) adenosine receptors. Molecular modeling and pharmacological studies” (Eur J Med Chem, 2014).
Calls of active or inactive are those of the source. The calls are words filed in the database; no cut-off is given here.

What was measured:
Adenosine receptor A1 [1] = molecular target: T1, Adenosine receptor A1 (Homo sapiens, UniProt P30542); assay: Displacement of [3H]-DPCPX from human adenosine A1 receptor expressed in CHO cells by scintillation counting analysis; type: cell-based
T1 sequence (P30542 whole entry): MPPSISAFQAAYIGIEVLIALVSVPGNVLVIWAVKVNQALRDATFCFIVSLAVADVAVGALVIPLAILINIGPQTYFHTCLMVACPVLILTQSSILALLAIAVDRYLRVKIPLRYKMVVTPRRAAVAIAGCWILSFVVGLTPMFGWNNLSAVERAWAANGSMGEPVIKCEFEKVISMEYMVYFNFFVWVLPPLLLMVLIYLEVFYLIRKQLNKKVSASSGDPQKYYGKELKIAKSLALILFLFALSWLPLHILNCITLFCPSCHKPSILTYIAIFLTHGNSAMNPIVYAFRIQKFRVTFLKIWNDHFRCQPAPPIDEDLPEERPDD

Adenosine receptor A2a [2] = molecular target: T2, Adenosine receptor A2a (Homo sapiens, UniProt P29274); assay: Displacement of [3H]ZM241385 from human adenosine A2A receptor expressed in CHO cells by scintillation counting analysis; type: cell-based
[3] = molecular target: T3, Adenosine receptor A3 (Homo sapiens) (UniProt P0DMS8); assay: Displacement of [3H]AB-MECA from human adenosine A3 receptor expressed in CHO cells at 1 uM by scintillation counting analysis relative to control; type: cell-based
T3 sequence (whole entry): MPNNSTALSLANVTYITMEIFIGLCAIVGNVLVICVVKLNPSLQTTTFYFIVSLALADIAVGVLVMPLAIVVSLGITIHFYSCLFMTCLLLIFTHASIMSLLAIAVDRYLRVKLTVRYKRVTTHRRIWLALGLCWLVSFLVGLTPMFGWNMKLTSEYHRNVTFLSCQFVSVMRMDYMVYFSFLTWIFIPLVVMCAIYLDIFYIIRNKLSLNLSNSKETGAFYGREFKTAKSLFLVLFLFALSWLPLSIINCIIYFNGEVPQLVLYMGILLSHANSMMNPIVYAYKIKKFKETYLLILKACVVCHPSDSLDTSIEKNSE

Adenosine receptor A2b = molecular target: T4, Adenosine receptor A2b (Homo sapiens, UniProt P29275); assay: Antagonist activity at human adenosine A2B receptor expressed in CHO cells assessed as inhibition of NECA-stimulated cAMP level by scintillation counting analysis; type: functional, cell-based
T4 sequence (P29275 whole entry): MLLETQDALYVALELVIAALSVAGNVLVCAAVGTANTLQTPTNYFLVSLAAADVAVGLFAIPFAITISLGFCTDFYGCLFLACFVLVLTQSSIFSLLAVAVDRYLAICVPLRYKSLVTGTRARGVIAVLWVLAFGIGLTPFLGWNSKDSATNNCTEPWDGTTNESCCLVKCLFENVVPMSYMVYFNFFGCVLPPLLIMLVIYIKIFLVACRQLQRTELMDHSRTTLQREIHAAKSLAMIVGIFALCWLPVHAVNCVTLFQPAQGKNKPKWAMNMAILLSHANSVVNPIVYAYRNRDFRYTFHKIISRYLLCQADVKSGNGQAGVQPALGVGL

Adenosine receptor A1 [4] = molecular target: T1, Adenosine receptor A1; assay: Antagonist activity at human adenosine A1 receptor expressed in CHO cells assessed as inhibition of CCPA-stimulated cAMP level by scintillation counting analysis; type: functional, cell-based
[5] = molecular target: T5, Adenosine receptor A2b (Homo sapiens) (UniProt P29275); assay: Antagonist activity at human adenosine A2B receptor expressed in CHO cells assessed as inhibition of NECA-stimulated cAMP level at 1 uM by scintillation counting analysis; type: functional, cell-based
T5 sequence (whole entry): T4 sequence (P29275 whole entry)

Adenosine receptor A3 = molecular target: T6, Adenosine receptor A3 (Homo sapiens, UniProt P0DMS8); assay: Displacement of [3H]AB-MECA from human adenosine A3 receptor expressed in CHO cells by scintillation counting analysis; type: cell-based
T6 sequence (P0DMS8 whole entry): T3 sequence (whole entry)

[6] = molecular target: T7, Adenosine receptor A1 (Homo sapiens) (UniProt P30542); assay: Displacement of [3H]-DPCPX from human adenosine A1 receptor expressed in CHO cells at 1 uM by scintillation counting analysis relative to control; type: cell-based
T7 sequence (whole entry): T1 sequence (P30542 whole entry)

Adenosine receptor A2a [7] = molecular target: T2, Adenosine receptor A2a; assay: Displacement of [3H]ZM241385 from human adenosine A2A receptor expressed in CHO cells at 1 uM by scintillation counting analysis relative to control; type: cell-based
[8] = molecular target: T7, Adenosine receptor A1 (Homo sapiens); conditions: CHO, 100 nM
Description: Antagonist activity at human adenosine A1 receptor expressed in CHO cells assessed as inhibition of CCPA-stimulated cAMP level at 100 nM by scintillation counting analysis

Adenosine receptor A2a [9] = molecular target: T2, Adenosine receptor A2a; assay: Antagonist activity at human adenosine A2A receptor expressed in CHO cells assessed as inhibition of NECA-stimulated cAMP level by scintillation counting analysis; type: functional, cell-based

T2 sequence (P29274 whole entry): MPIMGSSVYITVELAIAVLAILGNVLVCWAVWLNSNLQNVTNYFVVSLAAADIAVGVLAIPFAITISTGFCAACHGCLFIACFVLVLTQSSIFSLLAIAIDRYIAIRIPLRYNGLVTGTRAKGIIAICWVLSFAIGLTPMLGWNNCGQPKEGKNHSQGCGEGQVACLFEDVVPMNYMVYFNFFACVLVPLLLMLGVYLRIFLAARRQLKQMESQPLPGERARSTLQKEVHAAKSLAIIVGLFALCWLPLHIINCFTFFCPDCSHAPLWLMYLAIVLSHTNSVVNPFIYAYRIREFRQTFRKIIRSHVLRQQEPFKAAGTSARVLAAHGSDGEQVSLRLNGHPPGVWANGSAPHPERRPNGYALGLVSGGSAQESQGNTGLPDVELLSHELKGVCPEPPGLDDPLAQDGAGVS

Row | SMILES | Ki (Adenosine receptor A1 [1]) [µM] | Ki (Adenosine receptor A2a [2]) [µM] | inhibition [3] [%] | IC50 (Adenosine receptor A2b) [µM] | IC50 (Adenosine receptor A1 [4]) [µM] | inhibition [5] [%] | Ki (Adenosine receptor A3) [µM] | inhibition [6] [%] | inhibition (Adenosine receptor A2a [7]) [%] | inhibition [8] | IC50 (Adenosine receptor A2a [9]) [µM]
1 | COc1cccc(CCCc2nc(N)c3nn(-c4ccccc4)cc3n2)c1 | 0.00015 | 0.147 | 33 | 0.334 | 0.00241 |  |  |  |  |  | 
2 | COc1ccc(CCCc2nc(N)c3nn(-c4ccccc4)cc3n2)cc1 | 0.016 | 0.79 | 1 |  |  | 30 |  |  |  |  | 
3 | Nc1nc(Cc2ccccc2O)nc2cn(-c3ccccc3)nc12 | 0.064 | 0.089 |  |  |  | 1 | 0.097 |  |  |  | 
4 | CC(C)Cc1nc(N)c2nn(-c3ccccc3)cc2n1 |  |  | 13 |  |  | 1 |  | 49 | 50 |  | 
5 | Nc1nc(CCc2ccc(O)cc2)nc2cn(-c3ccccc3)nc12 | 0.42 |  | 37 |  |  | 7 |  |  | 30 |  | 
6 | COc1ccc(CCc2nc(N)c3nn(-c4ccccc4)cc3n2)cc1 | 0.38 |  | 22 |  |  | 9 |  |  | 13 |  | 
7 | Nc1ncnc2cn(-c3ccccc3)nc12 | 0.08 | 0.41 | 4 | 0.63 |  |  |  |  |  |  | 
8 | COc1ccccc1CCCc1nc(N)c2nn(-c3ccccc3)cc2n1 | 0.00131 | 0.153 | 47 | 0.387 | 0.012 |  |  |  |  |  | 
9 | COc1ccc(Cc2nc(N)c3nn(-c4ccccc4)cc3n2)cc1 |  |  | 38 |  |  | 5 |  | 48 | 20 |  | 
10 | Nc1nc(/C=C/c2ccccc2)nc2cn(-c3ccccc3)nc12 | 0.48 |  | 25 |  |  | 7 |  |  | 21 |  | 
11 | COc1cccc(Cc2nc(N)c3nn(-c4ccccc4)cc3n2)c1 | 0.09 |  | 37 |  |  | 1 |  |  | 14 |  | 
12 | C=CCOc1ccc(CCCc2nc(N)c3nn(-c4ccccc4)cc3n2)cc1 |  |  | 3 |  |  | 3 |  | 40 | 15 |  | 
13 | Nc1nc(Cc2ccc(Cl)cc2)nc2cn(-c3ccccc3)nc12 |  |  | 11 |  |  | 1 |  | 49 | 1 |  | 
14 | Nc1nc(CCCc2ccc(O)cc2)nc2cn(-c3ccccc3)nc12 | 0.018 | 0.722 | 20 |  |  | 5 |  |  |  |  | 
15 | Nc1nc(CCCc2ccccc2O)nc2cn(-c3ccccc3)nc12 | 0.00054 | 0.102 | 36 | 0.247 | 0.00426 |  |  |  |  |  | 
16 | Nc1nc(Cc2cccc(C(F)(F)F)c2)nc2cn(-c3ccccc3)nc12 |  |  | 41 |  |  | 1 |  | 1 | 21 |  | 

Row | SMILES | Ki (Adenosine receptor A1 [1]) [µM] | Ki (Adenosine receptor A2a [2]) [µM] | inhibition [3] [%] | IC50 (Adenosine receptor A2b) [µM] | IC50 (Adenosine receptor A1 [4]) [µM] | inhibition [5] [%] | Ki (Adenosine receptor A3) [µM] | inhibition [6] [%] | inhibition (Adenosine receptor A2a [7]) [%] | inhibition [8] | IC50 (Adenosine receptor A2a [9]) [µM]
17 | Nc1nc(CCCc2ccc(OCc3ccccc3)cc2)nc2cn(-c3ccccc3)nc12 |  |  | 2 |  |  | 8 |  | 14 | 3 |  | 
18 | Nc1nc(Cc2ccc(O)cc2)nc2cn(-c3ccccc3)nc12 |  |  | 20 |  |  | 4 |  | 39 | 44 |  | 
19 | COc1ccccc1Cc1nc(N)c2nn(-c3ccccc3)cc2n1 | 0.375 | 0.213 |  |  |  | 1 | 0.572 |  |  |  | 
20 | CCc1nc(N)c2nn(-c3ccccc3)cc2n1 | 0.09 |  | 38 |  |  | 49 |  |  | 38 |  | 
21 | Nc1nc(CCc2ccccc2)nc2cn(-c3ccccc3)nc12 |  |  | 17 |  |  | 2 |  | 15 | 35 |  | 
22 | Nc1nc(Cc2cccc(O)c2)nc2cn(-c3ccccc3)nc12 | 0.312 | 0.521 |  |  |  | 1 | 0.435 |  |  |  | 
23 | CC(C)c1nc(N)c2nn(-c3ccccc3)cc2n1 |  |  | 11 |  |  | 5 |  | 2 | 22 |  | 
24 | Nc1nc(Cc2cccc(Cl)c2)nc2cn(-c3ccccc3)nc12 |  |  | 42 |  |  | 1 |  | 32 | 6 |  | 
25 | Nc1nc(CCCc2cccc(O)c2)nc2cn(-c3ccccc3)nc12 | 0.00022 | 0.146 | 46 | 0.314 | 0.00287 |  |  |  |  |  | 
26 | Nc1nc(Cc2ccc3c(c2)OCO3)nc2cn(-c3ccccc3)nc12 | 0.075 |  | 14 |  |  | 1 |  |  | 2 |  | 
27 | Nc1nc(Cc2ccccc2F)nc2cn(-c3ccccc3)nc12 | 0.035 | 0.154 | 37 | 0.123 |  |  |  |  |  |  | 
28 | Cc1ccc(Cc2nc(N)c3nn(-c4ccccc4)cc3n2)cc1 |  |  | 39 |  |  | 21 |  | 38 | 26 |  | 
29 | OC[C@H]1O[C@@H](n2cnc3c(NC4CCCC4)nc(Cl)nc32)[C@H](O)[C@@H]1O |  |  |  |  |  |  |  |  |  | Active | 
30 | Nc1nc(Cc2ccccc2Cl)nc2cn(-c3ccccc3)nc12 | 0.155 |  | 22 |  |  | 3 |  |  | 44 |  | 
31 | Nc1nc(CCCc2ccccc2)nc2cn(-c3ccccc3)nc12 | 0.00531 | 0.055 | 12 | 0.432 | 0.043 | 42 |  |  |  |  | 0.423
32 | Cc1cccc(Cc2nc(N)c3nn(-c4ccccc4)cc3n2)c1 |  |  | 11 |  |  | 21 |  | 41 | 31 |  | 
